Measured values from patent US20220283175A1, “METALLOENZYMES FOR BIOMOLECULAR RECOGNITION OF N-TERMINAL MODIFIED PEPTIDES” (Encodia, Inc., priority 2020, published 2022).
Residues, ends and D or L forms follow the SMILES beside them. *: point of attachment. Benzoyl(4-SO2NH2) = NS(=O)(=O)c1ccc(C(=O)*)cc1

What was measured:
wild-type hCAII protein = wild-type hCAII protein (Homo sapiens, UniProt P00918); assay: colorimetric IC50 assay (pNPA hydrolysis) with wild-type hCAII; type: biochemical; details: for IC50: 300 nM wild-type hCAII; for Fold Enhancement: relative to NTM M64
Method: The colorimetric assay used 300 nM of wild-type carbonic anhydrase incubated in 45 μL of 50 mM MOPS (pH 7.5), 33 mM Na2SO4, and 1 mM EDTA aliquoted into a 96-well, clear, flat-bottom plate. To each column of the plate, a 1/10 dilution series from 1 mM to 0.1 nM of each NTM was added and incubated at 25° C. for 10 minutes to reach binding equilibrium. To this, 1 mM p-nitrophenylacetate (pNPA) was added to each well and screened on a plate reader at 405 nm wavelength. The initial rate of hydrolysis was observed over the first 60 seconds. The slopes versus the concentration of NTM were put into a non-linear regression equation to determine the IC50 of the NTM to the carbonic anhydrase.
The N-terminally modified peptides were then evaluated using colorimetric IC50 assay to determine relative binding affinity of NTM-AAEIR to wild-type hCAII protein based on NTM-AAEIR inhibition capacity. The slopes versus the concentration of NTM-AAEIR were put into a non-linear regression equation to determine the IC50 of the selected NTM-AAEIR peptides to the wild-type hCAII.

[1] = molecular target: human carbonic anhydrase II (hCAII) (Homo sapiens, UniProt P00918); assay: hCAII functional assay (hydrolysis of p-nitrophenylacetate, pNP release); type: biochemical; details: 1 μM hCAII, 500 μM pNP-OAc, 10 min at 37° C.
Method: A functional assay for hCAII enzyme was set up. Carbonic anhydrase catalyzes the hydrolysis of 4-nitrophenyl acetate (4-NPA) to nitrophenol, which can be monitored by absorbance at 400 nm. The enzymatic carbonic anhydrase assay generally includes 0.2-1.0 μM enzyme and 10-500 μM 4-NPA in 20-200 μL in assay buffer. […] Metal chelating agents (EDTA or EGTA), salt (NaCl, sulfate), detergent (Tween or Triton), and organic additives (acetonitrile, DMSO) may be employed to facilitate enzyme stability and reagent solubility. For the assay, 1 μM human carbonic anhydrase II, 50 mM MOPS (pH 7.6), 33 mM disodium sulfate, and 1 mM EDTA. To generate NTM-modified peptides, azide-derivatized peptides (via azide-PEG-amine and carbodiimide coupling to C-terminus of peptide) were conjugated to DBCO-coupled beads. […] To evaluate P1 dependence of the binding reaction, multiple P1 residues has been tested.

Compound | IC50 (wild-type hCAII protein; free NTM) | Fold Enhancement (wild-type hCAII protein; free NTM) | IC50 [1] | Fold Enhancement (wild-type hCAII protein; NTM-AAEIR)
Nc1cc(S(N)(=O)=O)ccc1C(=O)O [2-NH2, 2-Amino-4-sulfamoylbenzoic acid] | 1380 nM | 0.3 | – | –
C[C@H](NC(=O)c1ccc(S(N)(=O)=O)cc1)C(=O)N[C@@H](Cc1ccccc1)C(=O)N[C@@H](C)C(=O)N[C@@H](C)C(=O)N[C@@H](CCC(=O)O)C(N)=O [(SAB)AFAAE] ({Benzoyl(4-SO2NH2)}-AFAAE-NH2) | – | – | 183 nM | –
C[C@H](NC(=O)[C@H](C)NC(=O)[C@H](Cc1ccccc1)NC(=O)c1ccc(S(N)(=O)=O)cc1)C(=O)N[C@@H](C)C(=O)N[C@@H](CCC(=O)O)C(N)=O [(SAB)FAAAE] ({Benzoyl(4-SO2NH2)}-FAAAE-NH2) | – | – | 45 nM | –
NS(=O)(=O)c1ccc(C(=O)O)cn1 [M65, 6-Sulfamoylpyridine-3-carboxylic acid] | 211 nM | 2.2 | – | 0.3
NS(=O)(=O)c1ccc(C(=O)O)nc1 [M66] | 992 nM | 0.5 | – | –
NS(=O)(=O)c1ccc(C(=O)O)c([N+](=O)[O-])c1 [M67, 2-Nitro-4-sulfamoylbenzoic acid] | 124 nM | 3.8 | – | 2.0
COc1cc(S(N)(=O)=O)ccc1C(=O)O [M73, 2-Methoxy-4-sulfamoylbenzoic acid] | 65400 nM | 0.0 | – | –
Cc1cc(S(N)(=O)=O)ccc1C(=O)O [M74, 2-methyl-4-sulfamoylbenzoic acid] | 2040 nM | 0.2 | – | –
NS(=O)(=O)c1ccc(C(=O)O)c(F)c1 [M75, 2-Fluoro-4-sulfamoylbenzoic acid] | 224 nM | 2.1 | – | 2.2
NS(=O)(=O)c1ccc(C(=O)O)c(Cl)c1 [M76, 2-Chloro-4-sulfamoylbenzoic acid] | 180 nM | 2.6 | – | 1.9
NS(=O)(=O)c1ccc(C(=O)O)cc1F [M88, 3-Fluoro-4-sulfamoylbenzoic acid] | 110 nM | 4.3 | – | 1.6
